From US12109266B2, “Modulating gabarap to modulate immunogenic cell death” (Dana-Farber Cancer Institute, Inc., priority 2020, dated 2024) come the findings set out here.

What all share (assay type): cell-based, human
One assay concerns T cells. The assay can be described thus: Analysis of T cell priming (co-culture of MM cells, DCs and T cells). The method, then: DCs were generated from freshly isolated PBMCs as previously described. T cells were negatively selected from CD14− PBMCs using the Pan T cell Isolation Kit (Miltenyi Biotec) and frozen until immature DCs were generated. Either untreated or BTZ-treated MM cells were co-cultured with DCs and T cells for 5 days. T cells and DCs were also cultured in the absence of MM cells and in the presence of BTZ to assess the direct effects of drug on T cells and DCs. After 5 day co-culture, cells were treated with Dynabeads™ Human T-Activator CD3/CD28 (Cat. #11131D, ThermoFisher Scientific) 5 h before analysis, and with GolgiStop™ and GolgiPlug™ (Cat. #554724 and Cat. #555029, BD Biosciences) 3 h before analysis, following the manufacturer's instructions. Cells were then collected and T cell populations were analyzed by CyTOF analysis.
DCs were generated from healthy donors PBMCs as described above (“Generation of Mo-DCs” section). T cells were negatively selected from CD14-PBMCs from the same donors using the Pan T cell Isolation Kit (Miltenyi Biotec) and frozen until immature DCs were generated. Either untreated or BTZ-treated multiple myeloma cells were co-cultured with DCs and T cells for 5 days. T cells and DCs were similarly cultured in the absence of multiple myeloma cells and in the presence of BTZ. Before analysis, cells were treated with Dynabeads™ Human T-Activator CD3/CD28 (#11131D, ThermoFisher Scientific), and with GolgiStop™ and GolgiPlug™ (#554724 and #555029, BD Biosciences). T cell populations were analyzed using 10 color flow-cytometry with the following Abs: CD3-BV605 (#317322), CD8-FITC (#344704), CD4-PerCP/Cyanine5.5 (#317428), CD45RO-APC (#304210), CCR7-PE (#353204), CD69-PE/Cyanine7 (#310912), and IL-2-BV785 (#500348), IFNγ-BV421 (#502532) (BioLegend); and PD1-Super Bright 702 (#67-998-582). LIVE/DEAD™ Fixable Aqua dead Cell Stain(#L34966) (ThermoFisher Scientific) was also added to discriminate dead cells. Intracellular staining for IL-2 and IFNγ was performed using the Fixation/Permeabilization Solution Kit (BD Biosciences).
When T cell experiments were performed using patient multiple myeloma cells, the entire population of autologous BMMCs was cultured in presence and absence of BTZ and analyzed after 5 days. Data from experiments performed using multiple myeloma cell lines were analyzed with a bioinformatic semiautomated pipeline (Perez et al. (2020) Blood; 136(2):199-209). Briefly, flow cytometry files were entered in a custom R script which includes different bioinformatic algorithms and has been designed to reduce the impact of technical and instrumental differences, minimize the variability of manual analysis, and reveal full cellular diversity based on automatic semi-supervised clustering. Data from primary MM patients were manually analyzed by using Infinicyt 2.0 (Cytognos, Salamanca, Spain).

Assay [1] has as its system type-I IFN response in AMO1 and NCI-H929 MM cells. The assay can be described thus: Type-I IFN response in MM cells (RNA-seq, qRT-PCR, ELISA). The settings on record: BTZ 5 nM. The method, then: Total RNA from multiple myeloma cells was prepared with TRIzol™ (ThermoFisher Scientific) and RNA Clean and Concentrator™-5 kit (Zymo Research) following the product instructions. RNA integrity and quantity was assessed by NanoDrop Spectrophotometer (ThermoFisher Scientific). For analysis of mRNA expression, oligo-dT-primed cDNA was obtained using the High Capacity cDNA Reverse Transcription Kit (ThermoFisher Scientific), and used as template to quantify: human and murine IFNA1 (Hs03044218_g1, Mm03030145_gH), human and murine IFNB1 (Hs01077958_s1, Mm00439552_s1), human and murine CXCL9 (Hs00171065_ml, Mm00434946_ml), and human and murine GAPDH (Hs02786624_g1, Mm99999915_g1). Analysis was determined by RT-PCR using TaqMan®Fast Universal PCR Master Mix on a 7500 Fast Real-Time PCR System (ThermoFisher Scientific). Comparative RT-PCR was performed in triplicate. Relative expression was calculated using the comparative […] (Ct) method.
AMO1^WT and STING^KO cells were either untreated or treated with BTZ for 24 h. Supernatant was collected, and secretion of CXCL9 chemokines was analyzed by MIG (CXCL9) Human Instant ELISA™ Kit (#BMS285INST, ThermoFisher Scientific).
AMO1 WT and STING^KO were cultured for 16 h in the presence of absence of BTZ (5 nM). RNA was extracted as previously described and submitted to NovaSeq RNAseq analysis followed by VIPER NGS Analysis pipeline (Cornwell et al. (2018) BMC Bioinformatics; 19(1):135). Lists of DEGs were applied to the GSEA software. RNAseq data have been submitted to Gene Expression Omnibus (accession number: GSE171837).
Background: Real-time PCR tracks product formation cycle by cycle.

For a further assay, the system named is naive T cells. Briefly: Analysis of naive T cell proliferation. The settings on record: 5 day co-culture with BTZ-treated AMO1 or NCI-H929 cells and DCs. The protocol:
DCs were generated from healthy donors PBMCs as described above (“Generation of Mo-DCs” section). Naïve T cells were negatively selected from CD14-PBMCs from the same donors using the Naive Pan T Cell Isolation Kit (Miltenyi Biotec) and frozen. When DCs were generated, either untreated or BTZ-treated multiple myeloma cells were co-cultured with DCs and naïve T cells labeled with CellTrace™ Violet Cell Proliferation Kit (ThermoFisher Scientific) for 5 days. Naïve T cells were also cultured in the absence of multiple myeloma cells and in the presence of phytohemagglutinin (PHA) (20 ug/ml) as positive control. Before analysis, cells were stained with: CD8-FITC (#344704), CD4-PerCP/Cyanine5.5 (#317428) (BioLegend); and LIVE/DEAD™ Fixable Aqua dead Cell Stain (#L34966) (ThermoFisher Scientific). Proliferating CD4 and CD8 T cell subsets were then analyzed using the FlowJo software (Becton, Dickinson & Company).

“Also recorded” adds a separate entry of the source.

Turning to `CC(C)C[C@H](NC(=O)[C@H](Cc1ccccc1)NC(=O)c1cnccn1)B(O)O` [BTZ, bortezomib], the “T cell subsets (CD4+ EM, total CD8+, CD8+ EM)” value in the assay on T cells (BTZ-treated AMO1 STING^KO vs WT) is “no significant increase of CD4+EM; total CD8+; and CD8+EM cells”. Further, the “T cell subsets (CD4+ EM, total CD8+, CD8+ EM, CD8+ TEMRA)” value in the assay with T cells (BTZ-treated AMO1 or H929 cells with DCs and T cells, 5 days) was “significant increase of CD4+ effector memory (EM); total CD8+; CD8+EM and CD8+ terminally differentiated EM (TEMRA) cells”. The “T cell subsets / T cell maturation” value in the assay with T cells (DCs and T cells with BTZ 5 nM in the absence of MM cells, 5 days) is “not observed by treating DCs and T cells with BTZ in the absence of multiple myeloma cells; also recorded: does not induce T cell maturation”. Besides, the “T cell phenotype / priming (CyTOF)” value in the assay on T cells (DCs primed by BTZ-treated AMO1 GABARAP^KO) is on record as “led to T cell exhaustion; also recorded: GABARAP^KO blocks T cell priming by DCs after BTZ treatment”. In the assay on T cells (DCs primed by BTZ-treated AMO1 WT), the “CD4+ T cell phenotype (CyTOF)” value is on record as “switched CD4+ T cells towards an effector memory function”. In addition, the “CD4+ and CD8+ T cell populations” value in the assay on T cells (autologous BMMCs from MM patients, BTZ 5 nM, 5 days) is “confirmed the phenotypic changes in both CD4+ and CD8+ T cell populations”. For the same molecule, the “type-I IFN response gene sets (RNA-seq)” value in assay [1] (AMO1, 16 h) is “positive enrichment of gene sets included in the type-I IFN response hallmark signature; also recorded: MM cells engage in a type I IFN response after treatment with BTZ”. Further, in assay [1] (AMO1 STING^KO), the “CXCL9 transcript and secreted CXCL9 (ELISA)” value was “neither CXCL9 transcript or its secreted form were detected”; the “type-I IFN response (RNA-seq; IFNA1, IFNB1 qRT-PCR)” value is “did not activate transcription of genes in the IFNs response or increase the levels of IFNA1 and IFNB1 transcripts; also recorded: STING dependent”. Further, in assay [1] (AMO1 and NCI-H929, 16 h), the “IFNA1, IFNB1 and CXCL9 transcripts (qRT-PCR)” value is “increased IFNA1, IFNB1 and CXCL9 transcripts”. In the assay on naive T cells, the “proliferation of CD4+ and CD8+ naive T cells” value was “increased proliferation of both CD4+ and CD8+ naïve T cells; also recorded: promotes proliferation of CD4+ and CD8+ naïve T cells”.
